Measured values from ChEMBL document CHEMBL1144392, “2,3-Diaminopyridine as a platform for designing structurally unique nonpeptide bradykinin B1 receptor antagonists” (Bioorg Med Chem Lett, 2005).

How the values were obtained:
B1 bradykinin receptor = target: T1, B1 bradykinin receptor (Homo sapiens, UniProt P46663); assay: Inhibitory constant against human Bradykinin receptor B1 expressed in chinese hamster ovary cells; type: cell-based, CHO
T1 sequence (P46663 whole entry): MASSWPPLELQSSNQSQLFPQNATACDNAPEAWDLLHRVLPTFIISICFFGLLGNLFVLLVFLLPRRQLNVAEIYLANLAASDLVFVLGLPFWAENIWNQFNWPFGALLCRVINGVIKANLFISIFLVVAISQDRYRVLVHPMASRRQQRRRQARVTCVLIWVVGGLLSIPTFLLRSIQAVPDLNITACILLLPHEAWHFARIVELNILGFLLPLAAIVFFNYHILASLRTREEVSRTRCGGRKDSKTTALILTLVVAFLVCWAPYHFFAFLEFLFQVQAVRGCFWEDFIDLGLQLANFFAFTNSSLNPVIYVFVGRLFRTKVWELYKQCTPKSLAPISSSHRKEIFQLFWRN

[1] = Oral bioavailability in the Sprague Dawley rats; (n = 3); type: ADME, organism-based; conditions: rat, in vivo
[2] = Clearance in the Sprague Dawley rats; (n = 3); type: ADME, organism-based; conditions: rat, in vivo
[3] = Half life in the Sprague Dawley rats; (n = 3); type: ADME; conditions: rat, in vivo
[4] = Half life in the Sprague Dawley rats; (n = 3); ND = not determined; type: ADME; conditions: rat, in vivo

| Compound | Ki (B1 bradykinin receptor) [nM] | bioavailability [1] [%] | clearance [2] [mL/min/kg] | half-life [3] [min] | half-life [4] [min] |
| --- | --- | --- | --- | --- | --- |
| COC(=O)c1ccccc1-c1ccc(CNc2ncccc2NC(=O)C(C)C)cc1 | 230 |  |  |  |  |
| COC(=O)c1ccccc1-c1ccc([C@@H](C)Nc2nccc(C)c2NC(=O)CC(F)(F)F)cc1 | 1.8 | 17 | 8 | 54 |  |
| COC(=O)c1ccccc1-c1ccc(CNc2ncccc2NC(=O)CN(C)C)cc1 | 1280 |  |  |  |  |
| COC(=O)c1ccccc1-c1ccc(CNc2nccc(C)c2NC(=O)CC(F)(F)F)cc1 | 7.1 | 40 | 14 | 24 |  |
| COC(=O)c1ccccc1-c1ccc(CNc2ncccc2NC(=O)CC#N)cc1 | 11 | 28 | 18 | 48 |  |
| CNC(=O)c1ccccc1-c1ccc(CNc2nccc(C)c2NC(=O)CC(F)(F)F)cc1 | 11 | 79 | 30 | 60 |  |
| COC(=O)c1ccccc1-c1ccc([C@@H](C)Nc2nccc(C)c2NC(=O)CC#N)cc1 | 2.6 | 27 | 18.5 | 12 |  |
| CNC(=O)c1ccccc1-c1ccc(CNc2ncccc2NC(=O)CC(F)(F)F)cc1 | 33 | 95 | 15 | 18 |  |
| CCC(=O)Nc1cccnc1NCc1ccc(-c2ccccc2C(=O)OC)cc1 | 119 |  |  |  |  |
| CCCCC(=O)Nc1cccnc1NCc1ccc(-c2ccccc2C(=O)OC)cc1 |  | 2 | 30 | 12 |  |
| COC(=O)c1ccccc1-c1ccc(CNc2ncccc2NC(=O)CS(C)(=O)=O)cc1 | 40 |  |  |  |  |
| Cc1ccnc(NCc2ccc(-c3ccccc3C(=O)O)cc2)c1NC(=O)CC#N | 11.5 | 19 | 4.3 | 120 |  |
| CCCC(=O)Nc1cccnc1NCc1ccc(-c2ccccc2C(=O)OC)cc1 | 88 | 15 | 23 | 24 |  |
| CNC(=O)c1ccccc1-c1ccc([C@@H](C)Nc2nccc(C)c2NC(=O)CC(F)(F)F)cc1 | 6 | 25 | 31 | 30 |  |
| COC(=O)c1ccccc1-c1ccc(CNc2ncccc2NC(=O)CC(F)(F)F)cc1 |  | 9 | 35 |  | 12 |
| COCC(=O)Nc1cccnc1NCc1ccc(-c2ccccc2C(=O)OC)cc1 | 390 |  |  |  |  |
